Common to all, as to format: biochemical
The target of assay [1] is T1, recombinant human MAO-A (monoamine oxidase-A) (Homo sapiens, UniProt P21397).
T1 construct: purchased Sigma-Aldrich
T1 sequence (P21397 1-527): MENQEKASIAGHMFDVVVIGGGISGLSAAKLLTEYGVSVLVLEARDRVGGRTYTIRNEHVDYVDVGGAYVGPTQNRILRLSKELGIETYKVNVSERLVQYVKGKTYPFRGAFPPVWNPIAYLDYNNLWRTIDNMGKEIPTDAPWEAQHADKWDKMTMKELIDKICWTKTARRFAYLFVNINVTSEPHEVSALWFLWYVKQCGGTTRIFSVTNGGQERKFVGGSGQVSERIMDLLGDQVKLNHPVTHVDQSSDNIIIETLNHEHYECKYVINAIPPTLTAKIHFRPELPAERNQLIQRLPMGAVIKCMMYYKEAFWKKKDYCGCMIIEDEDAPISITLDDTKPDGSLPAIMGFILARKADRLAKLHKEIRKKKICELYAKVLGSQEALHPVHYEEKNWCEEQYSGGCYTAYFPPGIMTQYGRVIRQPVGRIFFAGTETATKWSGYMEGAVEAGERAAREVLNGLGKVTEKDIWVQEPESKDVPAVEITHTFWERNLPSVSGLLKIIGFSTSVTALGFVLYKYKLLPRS
Put plainly: Activity on recombinant human MAO-A, method similar to VAP-1 assay, 0.5 mM tyramine substrate. As to conditions: read-out: Inhibitory Activity (IC50, nM) MAO-A. As for the experimental part: (§1) The compounds according to the present technology were evaluated in terms of activity on recombinant human VAP-1 (R&D systems) by measuring the level of hydrogen peroxide in horseradish peroxidase (HRP)-coupled reaction using Amplex Red Hydrogen Peroxide Assay Kit (Molecular Probes, Invitrogen, USA). The experiment was carried out at room temperature using benzylamine as a substrate. In the HRP-coupled reaction, hydrogen peroxide oxidation of 10-acetyl-3,7-dihydroxyphenoxazine (Amplex Red reagent) produces resorufin, which is a highly fluorescent compound. Briefly, the test compound was dissolved in dimethyl sulfoxide (DMSO) at a concentration of 20 mM. The dose-response assessment was made by 1:3 serial dilution in DMSO, thereby creating a 8 point curve. The concentration of the upper part was controlled according to the efficacy of the compounds, followed by dilution with a reaction buffer solution to obtain a final DMSO concentration of less than 1%. To each well of a 96 black well plate, human VAP-1 purified in 50 mM sodium phosphate buffer solution (pH7.4) was added. The test compounds dissolved in DMSO were incubated with the human VAP-1 enzymes at 37° C. for 30 minutes. After 30-minute incubation, each well was added with a reaction mixture containing 200 uM Amplex Red reagent prepared from 50 mM sodium phosphate buffer solution (pH 7.4), 1 mM benzylamine, and 1 U/mL HRP. Fluorescence intensity was measured at several time points during 1-2 hours using a microplate reader (Flexstation3, Molecular Devices) under the wavelength condition exciting at 544 nm and reading the emission at 590 nm. The inhibitory effect of the compounds was measured as a decrease (%) in the signal rate as compared to the control group without any inhibitor (only diluted DMSO). Data was fixed to a logistic model with four variables and IC50 value was calculated using GraphPad Prism program.
(§2) In addition, the compounds according to the present technology were evaluated in terms of activity on a recombinant human MAO-A (monoamine oxidase-A, Sigma-Aldrich) and a recombinant human MAO-B(monoamine oxidase-B, Sigma-Aldrich) by using as substrates, 0.5 mM tyramine and 1 mM benzylamine, respectively, with a method similar to the activity evaluation method for recombinant human VAP-1. The compounds according to the present technology were also evaluated in terms of activity on a recombinant human DAO (diamine oxidase, R&D systems) by using as a substrate 1 mM putrescine with a method similar to the activity evaluation method for recombinant human VAP-1.

The target in a further assay is T2, recombinant human VAP-1 (Homo sapiens, UniProt Q16853).
T2 construct: purchased R&D systems
T2 sequence (Q16853 1-763): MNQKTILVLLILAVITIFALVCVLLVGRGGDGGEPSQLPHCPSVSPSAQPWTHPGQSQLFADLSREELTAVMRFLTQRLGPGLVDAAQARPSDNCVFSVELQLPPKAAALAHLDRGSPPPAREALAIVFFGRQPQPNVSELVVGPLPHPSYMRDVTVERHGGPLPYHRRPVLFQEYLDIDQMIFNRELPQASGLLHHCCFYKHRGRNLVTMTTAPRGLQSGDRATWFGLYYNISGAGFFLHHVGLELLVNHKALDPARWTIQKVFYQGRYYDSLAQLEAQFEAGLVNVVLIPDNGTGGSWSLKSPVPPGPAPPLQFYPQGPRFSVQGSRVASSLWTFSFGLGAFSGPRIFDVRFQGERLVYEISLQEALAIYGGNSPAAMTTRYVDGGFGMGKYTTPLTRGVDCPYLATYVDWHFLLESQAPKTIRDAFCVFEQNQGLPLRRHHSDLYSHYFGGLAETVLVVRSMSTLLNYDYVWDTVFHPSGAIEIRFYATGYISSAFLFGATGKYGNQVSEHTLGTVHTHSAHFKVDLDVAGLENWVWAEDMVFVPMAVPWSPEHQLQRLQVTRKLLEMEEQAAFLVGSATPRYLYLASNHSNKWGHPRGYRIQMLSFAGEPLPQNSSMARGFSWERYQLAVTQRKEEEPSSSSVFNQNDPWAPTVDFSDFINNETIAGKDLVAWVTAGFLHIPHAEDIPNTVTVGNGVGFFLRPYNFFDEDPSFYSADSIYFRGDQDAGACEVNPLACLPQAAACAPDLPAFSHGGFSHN
Put plainly: Activity on recombinant human VAP-1, HRP-coupled Amplex Red hydrogen peroxide assay, benzylamine substrate. The following applies: 30 min incubation at 37° C., 1 mM benzylamine, read-out: Inhibitory Activity (IC50, nM) human VAP-1. How it is done:
as §1

Assay [2] addresses T3, recombinant human MAO-B (monoamine oxidase-B) (Homo sapiens, UniProt P27338).
T3 construct: purchased Sigma-Aldrich
T3 sequence (P27338 1-520): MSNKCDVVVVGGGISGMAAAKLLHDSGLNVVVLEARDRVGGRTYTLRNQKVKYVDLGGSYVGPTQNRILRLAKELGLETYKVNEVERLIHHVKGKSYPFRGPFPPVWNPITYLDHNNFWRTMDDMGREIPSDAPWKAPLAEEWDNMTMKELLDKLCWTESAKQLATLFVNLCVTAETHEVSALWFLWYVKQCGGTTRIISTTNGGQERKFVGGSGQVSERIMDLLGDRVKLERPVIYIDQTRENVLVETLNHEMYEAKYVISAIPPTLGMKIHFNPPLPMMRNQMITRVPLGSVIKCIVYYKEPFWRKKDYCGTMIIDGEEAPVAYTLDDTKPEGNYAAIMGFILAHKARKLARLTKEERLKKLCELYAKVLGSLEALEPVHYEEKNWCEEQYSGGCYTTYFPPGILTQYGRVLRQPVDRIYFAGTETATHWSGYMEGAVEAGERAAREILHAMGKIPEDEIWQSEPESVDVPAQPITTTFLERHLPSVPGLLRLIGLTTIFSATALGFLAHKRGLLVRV
Put plainly: Activity on recombinant human MAO-B, method similar to VAP-1 assay, 1 mM benzylamine substrate. The following applies: read-out: Inhibitory Activity (IC50, nM) MAO-B. How it is done:
as §1, §2

Assay [3] deals with T4, recombinant human DAO (diamine oxidase) (Homo sapiens, UniProt P19801).
T4 construct: purchased R&D systems
T4 sequence (P19801 20-751): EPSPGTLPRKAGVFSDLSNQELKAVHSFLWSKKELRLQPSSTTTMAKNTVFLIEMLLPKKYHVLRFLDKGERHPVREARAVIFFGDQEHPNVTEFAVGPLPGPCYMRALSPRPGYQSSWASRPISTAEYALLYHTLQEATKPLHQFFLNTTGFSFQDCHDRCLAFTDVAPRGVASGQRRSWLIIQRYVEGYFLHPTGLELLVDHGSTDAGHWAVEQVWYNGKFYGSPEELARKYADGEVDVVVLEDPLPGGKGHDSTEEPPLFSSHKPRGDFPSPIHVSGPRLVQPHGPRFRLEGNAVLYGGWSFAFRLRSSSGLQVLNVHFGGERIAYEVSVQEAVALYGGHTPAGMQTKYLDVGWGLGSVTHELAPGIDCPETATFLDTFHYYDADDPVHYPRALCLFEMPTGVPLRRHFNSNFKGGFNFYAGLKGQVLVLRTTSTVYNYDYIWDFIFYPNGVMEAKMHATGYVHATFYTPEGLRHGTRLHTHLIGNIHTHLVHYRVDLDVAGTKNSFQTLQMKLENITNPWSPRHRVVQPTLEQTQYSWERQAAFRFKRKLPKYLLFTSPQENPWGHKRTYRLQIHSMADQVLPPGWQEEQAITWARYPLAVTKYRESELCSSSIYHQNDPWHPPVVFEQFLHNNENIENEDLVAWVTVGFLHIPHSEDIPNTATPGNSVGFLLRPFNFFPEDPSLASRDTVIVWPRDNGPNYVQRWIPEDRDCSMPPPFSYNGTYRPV
Put plainly: Activity on recombinant human DAO, method similar to VAP-1 assay, 1 mM putrescine substrate. As to conditions: read-out: Inhibitory Activity (IC50, nM) DAO. As for the experimental part: as §1, §2

Structures can show the parent of a compound that is named as a salt. Where only a bound is given, the exact number is not on record here.

The term IC50 denotes the concentration that gives 50% inhibition. For `NC/C(=C\F)Cn1nc2ccc(-c3ccc(-c4ccon4)cc3)cn2c1=O` [Example 7, 2-[(2E)-2-(aminomethyl)-3-fluoroprop-2-en-1-yl]-6-[4-(1,2-oxazol-3-yl)phenyl][1,2,4]triazolo[4,3-a]pyridin-3(2H)-one hydrochloride], the IC50 in assay [1] is > 100000 nM; on recombinant human VAP-1, 2.3 nM; in assay [2], 25 nM; in assay [3], 0.2 nM.
With `NCC(Cn1nc2cc(C#Cc3cnc4c(c3)NCCO4)ccn2c1=O)=C(F)F` [Example 60, 2-[2-(aminomethyl)-3,3-difluoro-allyl]-7-[2-(2,3-dihydro-1H-pyrido[2,3-b][1,4]oxazin-7-yl)ethynyl]-[1,2,4]triazolo[4,3-a]pyridin-3-one ditrifluoroacetate], the IC50 is > 100000 nM in assay [1], 0.4 nM at recombinant human VAP-1, > 100000 nM in assay [2] and 220 nM in assay [3].
With `CN(C)Cc1ccccc1-c1ccn2c(=O)n(C/C(=C/F)CN)nc2c1` [Example 23, 2-[(2E)-2-(aminomethyl)-3-fluoroprop-2-en-1-yl]-7-2-[(dimethylamino)methyl]phenyl[1,2,4]triazolo[4,3-a]pyridin-3(2H)-one hydrochloride], the 50% inhibitory concentration (IC50) is > 10000 nM in assay [1], 7 nM on recombinant human VAP-1, > 10000 nM in assay [2] and 37 nM in assay [3].
In the case of `CC(=O)Nc1cc(-c2ccc3nn(C/C(=C/F)CN)c(=O)n3c2)ccn1` [Example 8, N-[4-[2-[(2E)-2-(aminomethyl)-3-fluoroprop-2-en-1-yl]-3-oxo-2,3-dihydro[1,2,4]triazolo[4,3-a]pyridin-6-yl]pyridin-2-yl]acetamide trifluoroacetate], the results for the IC50 (at recombinant human VAP-1; in assay [3]) were 14 nM and < 100 nM, respectively.
In the case of `NC/C(=C\F)Cn1nc2ccc(-c3ccc(N4CCOCC4)nc3)cn2c1=O` [Example 11, 2-[(2E)-2-(aminomethyl)-3-fluoroprop-2-en-1-yl]-6-[6-(morpholin-4-yl)pyridin-3-yl][1,2,4]triazolo[4,3-a]pyridin-3(2H)-one hydrochloride], the half-inhibitory concentration (IC50) at recombinant human VAP-1 was 3.7 nM; in assay [2] it was 39 nM; in assay [3], 0.2 nM.
On to `NC/C(=C\F)Cn1nc2cccc(-c3ccc4nonc4c3)n2c1=O` [Example 21, 2-[(2E)-2-(aminomethyl)-3-fluoroprop-2-en-1-yl]-5-(2,1,3-benzoxadiazol-5-yl)[1,2,4]triazolo[4,3-a]pyridin-3(2H)-one trifluoroacetate], for which the IC50 at recombinant human VAP-1 is 150 nM.
Same read-out and setting: in the case of `CC(=O)Nc1ccc(-c2cccc3nn(C/C(=C/F)CN)c(=O)n23)cc1` [Example 18, N-[4-[2-[(2E)-2-(aminomethyl)-3-fluoroprop-2-en-1-yl]-3-oxo-2,3-dihydro[1,2,4]triazolo[4,3-a]pyridin-5-yl]phenyl]acetamide trifluoroacetate] it was 90 nM; in that of `NC/C(=C\F)Cn1nc2cccc(-c3ccc4c(c3)OCO4)n2c1=O` [Example 20, 2-[(2E)-2-(aminomethyl)-3-fluoroprop-2-en-1-yl]-5-(1,3-benzodioxol-5-yl)[1,2,4]triazolo[4,3-a]pyridin-3(2H)-one trifluoroacetate], > 100 nM.
In the case of `NC/C(=C\F)Cn1nc2cccc(-c3ccc(-c4ccon4)cc3)n2c1=O` [Example 19, 2-[(2E)-2-(aminomethyl)-3-fluoroprop-2-en-1-yl]-5-[4-(1,2-oxazol-3-yl)phenyl][1,2,4]triazolo[4,3-a]pyridin-3(2H)-one trifluoroacetate], the IC50 at recombinant human VAP-1 turned out to be 38 nM.
For `NC/C(=C\F)Cn1nc2ccc(Br)cn2c1=O` [Example 1, 2-[(2E)-2-(aminomethyl)-3-fluoroprop-2-en-1-yl]-6-bromo[1,2,4]triazolo[4,3-a]pyridin-3(2H)-one hydrochloride], the IC50 on recombinant human VAP-1 worked out at 87 nM; in assay [3], 100 nM.
On to `NC/C(=C\F)Cn1nc2cc(-c3ccc(N4CCOCC4)nc3)ccn2c1=O` [Example 33, 2-[(2E)-2-(aminomethyl)-3-fluoroprop-2-en-1-yl]-7-[6-(morpholin-4-yl)pyridin-3-yl][1,2,4]triazolo[4,3-a]pyridin-3(2H)-one hydrochloride], for which the IC50 was found to be 0.4 nM on recombinant human VAP-1, 130 nM in assay [2] and 5.8 nM in assay [3].

The values are drawn from patent US11091479B2, “Triazolopyridin-3-ones or their salts and pharmaceutical compositions comprising the same” (YUHAN CORPORATION, priority 2018, dated 2021).
